Measured values taken from PubChem BioAssay AID248 (DTP/NCI, 2004).
“And” between values parts separate entries of the source, which are not always exact repeats. Identical values can stand only once. Inconclusive results and toxic doses are left out. Cut-off read from the data, not from the text of the source: active = T/C of 150% or more; inactive = T/C below 125%.

Tested on: L1210 leukemia ip in BDF1 mice, survival T/C
Test: NCI In Vivo Anticancer Drug Screen. Data for tumor model L1210 Leukemia (intraperitoneal) in B6D2F1 (BDF1) mice
Conditions: endpoint: mean survival time, higher = longer survival
Outline: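 Ratio derived from survival: compound-dosed mice over vehicle-dosed mice, all bearing a transplantable tumor.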

Measured: T/C

CCCCCCCCCCCCNCc1ccc(O)cc1
inactive: dose: 25.0 mg/kg/injection, schedule: Q01DX001 (ip), vehicle: other 95 % of control | dose: 25.0 mg/kg/injection, schedule: Q01DX009 (ip), vehicle: saline with Tween-80 96 % of control | dose: 25.0 mg/kg/injection, schedule: Q04DX003 (ip), vehicle: saline with Tween-80 98 % of control | dose: 50.0 mg/kg/injection, schedule: Q01DX001 (ip), vehicle: other 93 % of control | dose: 50.0 mg/kg/injection, schedule: Q01DX009 (ip), vehicle: saline with Tween-80 93 % of control | dose: 50.0 mg/kg/injection, schedule: Q04DX003 (ip), vehicle: saline with Tween-80 101 % of control | dose: 100.0 mg/kg/injection, schedule: Q01DX001 (ip), vehicle: other 93 % of control and 90 % of control | dose: 100.0 mg/kg/injection, schedule: Q01DX009 (ip), vehicle: saline with Tween-80 88 % of control | dose: 100.0 mg/kg/injection, schedule: Q04DX003 (ip), vehicle: saline with Tween-80 102 % of control

COC(=O)C1=C(NC(=O)Nc2ccccc2)OC(C)(C)C1c1ccc(Cl)cc1 (configuration not stated)
inactive: dose: 100.0 mg/kg/injection, schedule: Q01DX001 (ip), vehicle: saline 93 % of control | dose: 200.0 mg/kg/injection, schedule: Q01DX001 (ip), vehicle: saline 89 % of control | dose: 400.0 mg/kg/injection, schedule: Q01DX001 (ip), vehicle: saline 89 % of control
